What all share (assay type): biochemical
In assay [1] the target is T1, PPIP5K2^KD (kinase domain of human PPIP5K2) (Homo sapiens, UniProt O43314).
T1 construct: The kinase domain of human PPIP5K2 (PPIP5K2^KD; residues 1–366); made in house
T1 sequence (O43314 1-366): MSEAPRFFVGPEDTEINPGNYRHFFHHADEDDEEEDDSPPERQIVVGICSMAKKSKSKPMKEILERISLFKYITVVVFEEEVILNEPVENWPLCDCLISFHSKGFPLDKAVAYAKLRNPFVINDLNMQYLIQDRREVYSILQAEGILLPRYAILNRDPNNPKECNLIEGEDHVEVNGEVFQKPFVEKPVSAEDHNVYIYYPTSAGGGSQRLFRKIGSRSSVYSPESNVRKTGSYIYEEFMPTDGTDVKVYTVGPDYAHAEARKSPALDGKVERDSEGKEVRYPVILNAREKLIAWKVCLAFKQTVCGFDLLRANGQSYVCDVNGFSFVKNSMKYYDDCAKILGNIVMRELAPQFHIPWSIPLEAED
Description: Reverse-kinase assay: ADP-driven dephosphorylation of 1,5-[PP]2-InsP4, luminescence-based assay of ATP accumulation. The note with it: for IC50: 100 nM [PP]2-InsP4, key of Figure 4B, n = 3, read-out: IC50, inhibition of ADP-driven dephosphorylation of [PP]2-InsP4. How it is done: The six compounds that were selected for the dose-response curves in the assays of ATP hydrolysis (Figure 4A) were now investigated for their effects upon diphosphoinositol polyphosphate metabolism by PPIP5K2^KD (Figure 4B). We used a high-throughput reverse-kinase assay that records ATP generated from ADP during the dephosphorylation of 100 nM 1,5-[PP]2-InsP4 ([Riley et al., 2012; Weaver et al., 2013]). Each of the tested analogs inhibited [PP]2-InsP4 metabolism by PPIP5K2^KD (Figure 4B). […] However, the inhibition by 2,5-di-O-Bn-InsP4 (10) was more unexpected because due to its bulk, and its less negative charge compared to physiological substrates, we predict it to be a poor ligand for the active site of the highly specific PPIP5K2^KD ([Wang et al., 2012]). Nevertheless, its ability to inhibit reverse-kinase activity was directly confirmed by high-performance liquid chromatography (HPLC) analysis of [PP]2-[^3H]InsP4 dephosphorylation (Figures S1A–S1C available online).
(§1) The initial InsP6 concentration was either 500 nM, 70 nM, or 40 nM. Various concentrations of 2,5-di-O-Bn-InsP4 were present as indicated. Radioactivity was assessed using an in-line Flo1 detector. The ADP-driven dephosphorylation of 100 nM 1,5-[PP]2-InsP4 by PPIP5K2^KD was usually determined by a luminescence-based assay of ATP accumulation ([Riley et al., 2012; Weaver et al., 2013]). The IC50 values were determined using GraphPad Prism v6.02 (n ≥ 3). In some experiments, 1,5-[PP]2-[^3H]InsP4 dephosphorylation by PPIP5K2^KD was assayed in 50 μl buffer containing 50 mM KCl, 20 mM HEPES pH 7.0, 7 mM MgSO4, 5 mM ADP, 1 mM EDTA. Reactions were then quenched, neutralized, and analyzed with HPLC using a Partisphere SAX column ([Weaver et al., 2013]); 1 ml fractions were collected for liquid scintillation spectrometry. The ATPase activity of PPIP5K2^KD (10–270 μg/ml) was assayed from Pi release following incubation at 37°C for 120–180 min in 20 μl reaction mixtures containing 20 mM Tris/HCl, pH 7.5, 10 mM ATP, 100 mM KCl, 0.1 mM EDTA, and 13 mM MgCl2.

The target of the next assay is T2, PPIP5K2^KD H194A mutant (Homo sapiens, UniProt O43314, H194A).
T2 construct: The kinase domain of human PPIP5K2 (PPIP5K2^KD; residues 1–366); made in house
T2 sequence (O43314 1-366 H194A): T1 sequence (O43314 1-366) with H194A
Description: ATPase activity of H194A mutant. The note with it: data not shown. How it is done: as §1

A further assay concerns the target T3, PPIP5K2^KD R213A mutant (Homo sapiens, UniProt O43314, R213A).
T3 construct: The kinase domain of human PPIP5K2 (PPIP5K2^KD; residues 1–366); made in house
T3 sequence (O43314 1-366 R213A): T1 sequence (O43314 1-366) with R213A
In words: ATPase activity of R213A mutant. The conditions noted are these: Figures 7B and 7C. The method, then: as §1

Structures are written as SMILES. Positions count from the first letter of the chain named.

Consider `O=C(CP(=O)(O)O)O[C@@H]1[C@@H](OP(=O)(O)O)[C@H](OP(=O)(O)O)[C@H](OCc2ccccc2)[C@H](OP(=O)(O)O)[C@H]1OP(=O)(O)O` [compound 2, 2-O-benzyl-5-O-α-phosphonoacetyl-myo-inositol 1,3,4,6-tetrakisphosphate], for which, in assay [1] (100 nM 1,5-[PP]2-InsP4, Figure 4B), the “inhibition of [PP]2-InsP4 metabolism (in words)” value was “equally efficient”. Besides, in assay [1], the IC50 was 0.42 µM. For the same compound, the “ATPase activity in the presence of analog (in words)” value at PPIP5K2^KD H194A mutant is recorded as “did not exhibit any detectable ATPase activity”. Moreover, the “stimulation of ATPase activity vs wild-type (in words)” value at PPIP5K2^KD R213A mutant was “substantially impaired degree of stimulation”.

As for `O=P(O)(O)O[C@@H]1[C@@H](OCc2ccccc2)[C@H](OP(=O)(O)O)[C@@H](OP(=O)(O)O)[C@@H](OCc2ccccc2)[C@H]1OP(=O)(O)O` [compound 10, 2,5-di-O-Bn-InsP4], the IC50 in assay [1] amounted to 0.17 µM. Besides, on PPIP5K2^KD H194A mutant, the “ATPase activity in the presence of analog (in words)” value is recorded as “did not exhibit any detectable ATPase activity”. The “stimulation of ATPase activity vs wild-type (in words)” value on PPIP5K2^KD R213A mutant is on record as “substantially impaired degree of stimulation”.

As a reminder, the IC50 is the concentration needed to halve the response being measured.

Values taken from paper PMC4085797, “Synthetic Inositol Phosphate Analogs Reveal that PPIP5K2 Has a Surface-Mounted Substrate Capture Site that Is a Target for Drug Discovery” (Chemistry & Biology, 2014).
